# From patent US12066439B2, “Methods for enhancing specificity and sensitivity of group a Streptococcus immunoassay” (Becton, Dickinson and Company, priority 2021, dated 2024)
# Entries after “also recorded” stand apart in the source; their conditions may differ.
# Key:
# [1] = system: anti-Strep A polyclonal antibodies; assay: Strep A lateral flow immunoassay (Veritor Strep A), false positive signal from porcine mucin samples; format: binding; details: for false positive signals from porcine mucin samples: agent added directly to the sample, 4x mucin standard (~2.5 mg/mL), FIGS. 5-6
# Method: 2-N-butanoyl-D-glucosamide, or Bis-(2-(D-2-deoxy-glucosaminyl))-PEG3-amide were tested for their ability to inhibit or block the binding of the anti-Strep A polyclonal antibodies in the Strep A immunoassay (Veritor™ Strep A assay). Porcine mucin samples were used as a surrogate of human saliva sample, and were tested with an immunoassay test strip for specificity. Using an immunoassay device for detection of Strep A, the effect of 2-N-butanoyl-D-glucosamide, or Bis-(2-(D-2-deoxy-glucosaminyl))-PEG3-amide on the performance of Strep A assay was evaluated using 4× concentration of mucin standard (˜2.5 mg/mL) and Test Standard 1. […] Different concentrations of 2-N-butanoyl-D-glucosamide, or Bis-(2-(D-2-deoxy-glucosaminyl))-PEG3-amide in an immunoassay were evaluated for inhibition of Strep A false positive signals.
# m-PEG4-glucosamine, m-PEG6-glucosamine, m-PEG10-glucosamine and m-PEG5000-glucosamine were tested for their ability to inhibit or block the binding of the anti-Strep A polyclonal antibodies in the Strep A immunoassay. […] Different concentrations of m-PEG4-glucosamine, m-PEG6-glucosamine, m-PEG10-glucosamine and m-PEG5000-glucosamine in an immunoassay were evaluated for inhibition of Strep A false positive signals.
# [2] = system: anti-Strep A polyclonal antibodies; assay: Strep A lateral flow immunoassay (Veritor Strep A), sensitivity with sample containing Strep A antigen; format: binding; details: for sensitivity of the Strep A assay: agent mixed with sample containing Strep A antigen, FIG. 10
# Method: FIGS. 1A-1C show the effect of N-propionyl-D-glucosamine on the sensitivity and false positivity of the Veritor™ Strep A assay when analyzing a test sample. The N-propionyl-D-glucosamine was added to the extraction reagent and mixed with porcine mucin, a surrogate of human mucin from saliva for specificity, or with Strep A extract for sensitivity.
# 2-N-butanoyl-D-glucosamide, or Bis-(2-(D-2-deoxy-glucosaminyl))-PEG3-amide were tested for their ability to inhibit or block the binding of the anti-Strep A polyclonal antibodies in the Strep A immunoassay (Veritor™ Strep A assay). Porcine mucin samples were used as a surrogate of human saliva sample, and were tested with an immunoassay test strip for specificity. Using an immunoassay device for detection of Strep A, the effect of 2-N-butanoyl-D-glucosamide, or Bis-(2-(D-2-deoxy-glucosaminyl))-PEG3-amide on the performance of Strep A assay was evaluated using 4× concentration of mucin standard (˜2.5 mg/mL) and Test Standard 1. Either 2-N-butanoyl-D-glucosamide, or Bis-(2-(D-2-deoxy-glucosaminyl))-PEG3-amide was added directly to the sample. Different concentrations of 2-N-butanoyl-D-glucosamide, or Bis-(2-(D-2-deoxy-glucosaminyl))-PEG3-amide in an immunoassay were evaluated for inhibition of Strep A false positive signals.
# [3] = system: anti-Strep A polyclonal antibodies; assay: Strep A lateral flow immunoassay (Veritor Strep A), false positive signal from saliva samples; format: binding; details: saliva from asymptomatic patients; FIGS. 1-4
# Method: Saliva samples were collected from four asymptomatic patients and tested with an immunoassay test strip for specificity. Previous studies have reported that samples obtained from the mouth tissues, saliva, cheek and tongue of healthy control patients show high false positive rates for Strep A when assayed via a lateral flow immunoassay. See US20130196337A1.
# N-propionyl-D-glucosamine was tested for its ability to inhibit or block the binding of the anti-Strep A polyclonal antibodies in the Strep A immunoassay. Saliva samples from four asymptomatic patients were obtained for testing. Using an immunoassay device for detection of Strep A, the four saliva samples were each treated with the extraction reagents (such as the extraction reagents in a commercially available BD Veritor™ Strep A kit) in the presence of N-propionyl-D-glucosamine, which was dried on the conjugate pad during the spraying of liquid conjugate on the conjugate pad (labeling zone). Different concentrations of N-propionyl-D-glucosamine in an immunoassay were evaluated for inhibition of Strep A false positive signals.
# [4] = system: anti-Strep A polyclonal antibodies; assay: Strep A detection assay, agent added to extraction solution (GAS 1+2) without mucin; format: binding; details: no mucin, FIG. 11
# [5] = system: Rabbit polyclonal antibodies for Group A Strep; details: previous studies, US 2013/0196337; cited from earlier work
# [6] = agent mixed with porcine mucin sample, FIG. 10
# [7] = high concentration in sample pad or conjugate pad dipping solution, FIG. 8
# [8] = lower concentrations (zero to 12.5 mM tested) in conjugate pad dipping solution, FIG. 9
# [9] = agent added directly to the sample, Test Standard 1, FIGS. 5-6
molecule,measurement,setting,value
m-PEG10-glucosamine,mucin cross-reaction,[1]; [6],effective in eliminating
same,sensitivity of the Strep A assay,[2],without significant impact
CCC(=O)N[C@H]1C(O)O[C@H](CO)[C@@H](O)[C@@H]1O (stereo partly drawn) [N-propionyl-D-glucosamine],overall sensitivity of the Veritor Strep A assay,[2]; FIG. 1 and FIG. 3,did not reduce
same,false positive signals from saliva specimens,[3],efficiently suppressed
m-PEG6-glucosamine,mucin cross-reaction,[1]; [6],effective in eliminating
same,sensitivity of the Strep A assay,[2],without significant impact
Bis-(2-(D-2-deoxy-glucosaminyl))-PEG3-amide,mucin induced false positive signal,"[1]; added in sample, two lots of Strep A devices that previously showed mucin cross-reaction, FIG. 7",significantly reducing
same,false positive signal,"[1]; added to conjugate pad dipping solution and/or sample pad dipping solution, FIG. 8",significantly reduced
same,false positive signals from porcine mucin samples,[1],efficiently suppressed
same,false positive signal caused by mucin,[1]; [7],effectively eliminate
same,mucin cross-reaction,[1]; [8],effectively eliminate
same,true sensitivity,"[2]; added in sample, two lots of Strep A devices, FIG. 7",slightly inhibited
same,overall sensitivity of the Veritor Strep A assay,[2]; [9],did not significantly reduce
same,true signal,[2]; [7],inhibit
same,true sensitivity,[2]; [8],without much impact
m-PEG4-glucosamine,mucin cross-reaction,[1]; [6],effective in eliminating
same,sensitivity of the Strep A assay,[2],without significant impact
m-PEG5000-glucosamine,false positive signal when mucin is not present,[4],no any false positive signal was observed
same,false positive signal caused by mucin,"[1]; agent added to sample, mucin present, FIG. 11","did not reduce the false positive signal caused by mucin, but instead increases the false positive signal; also recorded: does not reduce the false positive signal caused by mucin, but instead increases the false positive signal"
CC(=O)N[C@H]1C(O)O[C@H](CO)[C@@H](O)[C@@H]1O (stereo partly drawn) [N-acetyl-D-glucosamine],assay sensitivity,[5],significant reduction
same,assay specificity (interference by salivary proteins),[5],can improve assay specificity
CCCC(=O)N[C@H]1C(O)O[C@H](CO)[C@@H](O)[C@@H]1O (stereo partly drawn) [2-N-butanoyl-D-glucosamide],false positive signals from porcine mucin samples,[1],efficiently suppressed
same,overall sensitivity of the Veritor Strep A assay,[2]; [9],did not significantly reduce
